In patent US20200000772A1, “CENICRIVIROC COMBINATION THERAPY FOR THE TREATMENT OF FIBROSIS” (Tobira Therapeutics, Inc., priority 2014, published 2020):

Columns and labels:
[1] = system: renal fibrosis induced by unilateral ureter occlusion (UUO); test: Mouse UUO model of renal fibrosis; format: in vivo, CD-1 mice
Description: Test animals were allocated to weight-matched treatment groups on the day prior to the surgical procedure (Day −1). Male CD-1 mice (N=51; age, 7-8 weeks) underwent either sham surgery or total ligation of the right ureter, i.e. UUO, via aseptic laparotomy (FIG. 5). […] Another group received the anti-transforming growth factor TGF-β1 antibody, compound 1D11 (positive control) at 3 mg/kg/day from Days −1 to 4, injected intraperitoneally once daily, and vehicle control from Days 0 to 5. […] On Day 5, animals were anaesthetised, blood and tissues were collected prior to sacrifice.
Study endpoints included: a) body and kidney weights; b) fibrosis in obstructed kidney evaluated via histological quantitative image analysis of picrosirius red staining (ten images/depth/kidney obtained and assessed in a blinded fashion using light microscopy [at 200×] to enable sampling of 60-70% of the renal cortical area) and quantified by a composite Collagen Volume Fraction (CVF [% total area imaged]) score expressed as the average positive stain across three anatomically distinct ([…] apart) tissue sections, or depths, from the obstructed kidney; c) hydroxyproline content of frozen renal cortical tissue biopsies as assessed by biochemical analyses; d) mRNA expression of profibrotic and inflammatory biomarkers (including MCP-1, Collagen 1a1, Collagen 3a1, TGF-β1, Fibronectin-1, α-smooth muscle actin (α-SMA) and connective tissue growth factor-1 (CTGF-1); assessed via Luminex® (Life Technologies™, Carlsbad, Calif., USA) assay with relative expression normalised to HPRT (hypoxanthine phosphoribosyltransferase).
Data are expressed as mean±standard error of mean (SEM). Statistical analyses were performed using GraphPad Prism® (GraphPad Software, Inc., San Diego, Calif., USA). Treatment differences between sham-surgery+vehiclecontrol and UUO+vehicle-control groups, and between UUO+vehicle-control and UUO+compound-1D1 (positive control) groups, were analysed by unpaired t-Test. Treatment differences between UUO+vehicle-control and CVC-dose groups were analysed by one-way ANOVA (analysis of variance) with Dunnett's test (post-hoc).

[2] = Mouse toxicity studies without surgical procedures; format: in vivo; conditions: CVC doses up to 2000 mg/kg/day
[3] = system: HIV-1 infected adult subjects; test: Study 202 biomarkers of inflammation; format: in vivo, human
Description: As an exploratory analysis, levels of inflammation biomarkers MCP-1, sCD14, high sensitivity C-reactive protein [hs-CRP], interleukin-6 [IL-6], D-dimer, and fibrinogen) were measured. Baseline values and changes from baseline at Week 24 and Week 48 of MCP-1, sCD14, hs-CRP, IL-6, D-dimer, and fibrinogen are summarized in Table 22.
The sCD14 samples were originally analyzed in 2 separate batches: Batch 1 included samples leading up to the Week 24 primary analysis and Batch 2 included Week 32 and Week 48 (end of study) samples. A repeat analysis of archived samples all analyzed in one batch was conducted for consistency in analysis across time points. To control for the effects of covariates, a linear mixed-model repeated-measures analysis was conducted on the changes from baseline in sCD14 (analysis dated September 2013).

[4] = CVC 7 and 20 mg/kg/day, compound 1D11, vs UUO+vehicle-control

SMILES: CCCCOCCOc1ccc(-c2ccc3c(c2)/C=C(/C(=O)Nc2ccc([S@@+]([O-])Cc4cncn4CCC)cc2)CCCN3CC(C)C)cc1 [CVC, (S)-8-[4-(2-Butoxyethoxy)phenyl]-1-isobutyl-N-(4-{[(1-propyl-1H-imidazol-5-yl)methyl]sulfinyl}phenyl)-1,2,3,4-tetrahydro-1-benzazocine-5-carboxamide]
- effect on body weight ([1]; CVC 7 mg/kg/day oral, compound 1D11 3 mg/kg/day i.p., Day 5): no effect
- decrease in body weight relative to UUO+vehicle-control ([1]; CVC 20 mg/kg/day, Day 5): 5%
- tolerability after UUO surgery ([1]; CVC 100 mg/kg/day group (N=9)): terminated early due to moribundity
- effect on UUO-induced increases in obstructed kidney hydroxyproline content ([1]; CVC 7 and 20 mg/kg/day): Neither dose of CVC tested affected
- effects on obstructed or contralateral kidney weight or kidney weight index ([1]; CVC 7 and 20 mg/kg/day, compound 1D11 3 mg/kg/day, vs UUO+vehicle-control): No significant treatment effects
- Collagen 1a1, Collagen 3a1, TGF-β1 and Fibronectin-1 mRNA expression in obstructed kidney [1, 4]: attenuated UUO-induced increases
- obstructed kidney cortical MCP-1, α-SMA and CTGF-1 mRNA expression [1, 4]: did not have significant effects
- tolerability [2]: well tolerated
- D-dimer Changes from baseline at Week 24, Mean ([3]; CVC 100 mg): -32 ng/mL
- D-dimer Changes from baseline at Week 24, Median ([3]; CVC 100 mg): -1.0 ng/mL
- D-dimer Changes from baseline at Week 48, Mean ([3]; CVC 100 mg): -41 ng/mL
- D-dimer Changes from baseline at Week 48, Median ([3]; CVC 100 mg): -1.0 ng/mL
- Fibrinogen Changes from baseline at Week 24, Mean ([3]; CVC 100 mg): -3 mg/dL
- Fibrinogen Changes from baseline at Week 24, Median ([3]; CVC 100 mg): -14 mg/dL
- Fibrinogen Changes from baseline at Week 48, Mean ([3]; CVC 100 mg): 11 mg/dL
- Fibrinogen Changes from baseline at Week 48, Median ([3]; CVC 100 mg): 15 mg/dL
- IL-6 Changes from baseline at Week 24, Mean ([3]; CVC 100 mg): 0.42 pg/mL
- IL-6 Changes from baseline at Week 24, Median ([3]; CVC 100 mg): 0.00 pg/mL
- IL-6 Changes from baseline at Week 48, Mean ([3]; CVC 100 mg): 0.29 pg/mL
- IL-6 Changes from baseline at Week 48, Median ([3]; CVC 100 mg): 0.00 pg/mL
- MCP-1 Changes from baseline at Week 24, Mean ([3]; CVC 100 mg): 493 pg/mL
- MCP-1 Changes from baseline at Week 24, Median ([3]; CVC 100 mg): 429 pg/mL
- MCP-1 Changes from baseline at Week 48, Mean ([3]; CVC 100 mg): 636 pg/mL
- MCP-1 Changes from baseline at Week 48, Median ([3]; CVC 100 mg): 523 pg/mL
- hs-CRP Changes from baseline at Week 24, Mean ([3]; CVC 100 mg): -0.16 mg/dL
- hs-CRP Changes from baseline at Week 24, Median ([3]; CVC 100 mg): -0.03 mg/dL
- hs-CRP Changes from baseline at Week 48, Mean ([3]; CVC 100 mg): -0.08 mg/dL
- hs-CRP Changes from baseline at Week 48, Median ([3]; CVC 100 mg): -0.01 mg/dL
- plasma MCP-1 over time ([3]; CVC 100 mg and 200 mg, EFV, up to Week 48): dose-response was observed with CVC in increases over time
- sCD14 Changes from baseline Week 32, Mean ([3]; CVC 100 mg, original values): 110000 pg/mL
- sCD14 Changes from baseline Week 32, Median ([3]; CVC 100 mg, original values): 120000 pg/mL
- sCD14 Changes from baseline at Week 12, Mean ([3]; CVC 100 mg, original values): -140000 pg/mL
- sCD14 Changes from baseline at Week 12, Median ([3]; CVC 100 mg, original values): -160000 pg/mL
- sCD14 Changes from baseline at Week 24, Mean ([3]; CVC 100 mg, original values): -190000 pg/mL
- sCD14 Changes from baseline at Week 24, Median ([3]; CVC 100 mg, original values): -180000 pg/mL
- sCD14 Changes from baseline at Week 48, Mean ([3]; CVC 100 mg, original values): 100000 pg/mL
- sCD14 Changes from baseline at Week 48, Median ([3]; CVC 100 mg, original values): 100000 pg/mL
- D-dimer Changes from baseline at Week 24, Mean ([3]; CVC 200 mg): -64 ng/mL
- D-dimer Changes from baseline at Week 24, Median ([3]; CVC 200 mg): -50 ng/mL
- D-dimer Changes from baseline at Week 48, Mean ([3]; CVC 200 mg): -70 ng/mL
- D-dimer Changes from baseline at Week 48, Median ([3]; CVC 200 mg): -50 ng/mL
- Fibrinogen Changes from baseline at Week 24, Mean ([3]; CVC 200 mg): -7 mg/dL
- Fibrinogen Changes from baseline at Week 24, Median ([3]; CVC 200 mg): -8 mg/dL
- Fibrinogen Changes from baseline at Week 48, Mean ([3]; CVC 200 mg): -10 mg/dL
- Fibrinogen Changes from baseline at Week 48, Median ([3]; CVC 200 mg): -13 mg/dL
- IL-6 Changes from baseline at Week 24, Mean ([3]; CVC 200 mg): 0.81 pg/mL
- IL-6 Changes from baseline at Week 24, Median ([3]; CVC 200 mg): 0.00 pg/mL
- IL-6 Changes from baseline at Week 48, Mean ([3]; CVC 200 mg): -0.04 pg/mL
- IL-6 Changes from baseline at Week 48, Median ([3]; CVC 200 mg): 0.00 pg/mL
- MCP-1 Changes from baseline at Week 24, Mean ([3]; CVC 200 mg): 753 pg/mL
- MCP-1 Changes from baseline at Week 24, Median ([3]; CVC 200 mg): 695 pg/mL
- MCP-1 Changes from baseline at Week 48, Mean ([3]; CVC 200 mg): 900 pg/mL
- MCP-1 Changes from baseline at Week 48, Median ([3]; CVC 200 mg): 756 pg/mL
- hs-CRP Changes from baseline at Week 24, Mean ([3]; CVC 200 mg): -0.07 mg/dL
- hs-CRP Changes from baseline at Week 24, Median ([3]; CVC 200 mg): -0.04 mg/dL
- hs-CRP Changes from baseline at Week 48, Mean ([3]; CVC 200 mg): -0.18 mg/dL
- hs-CRP Changes from baseline at Week 48, Median ([3]; CVC 200 mg): -0.04 mg/dL
- sCD14 Changes from baseline Week 32, Mean ([3]; CVC 200 mg, original values): 20000 pg/mL
- sCD14 Changes from baseline Week 32, Median ([3]; CVC 200 mg, original values): -20000 pg/mL
- sCD14 Changes from baseline at Week 12, Median ([3]; CVC 200 mg, original values): -210000 pg/mL
- sCD14 Changes from baseline at Week 24, Mean ([3]; CVC 200 mg, original values): -230000 pg/mL
- sCD14 Changes from baseline at Week 24, Median ([3]; CVC 200 mg, original values): -190000 pg/mL
- sCD14 Changes from baseline at Week 48, Mean ([3]; CVC 200 mg, original values): -40000 pg/mL
- sCD14 Changes from baseline at Week 48, Median ([3]; CVC 200 mg, original values): -40000 pg/mL
- sCD14 over 48 weeks of treatment (linear mixed-model analysis of repeat sCD14 analysis) ([3]; both CVC treatment arms, EFV arm): decrease
